Test system: normal rats
Assay: Bone mineral density after four weeks of repeated intravenous administration to normal rats
Assay type: in vivo, rat
Settings: intravenous once a day for four weeks
Experimental: Female RccHan: WIST rats obtained from Japan Laboratory Animals Inc. were acclimated for one week or longer under standard laboratory conditions of 20° C. to 26° C. and 30% to 70% humidity, and then used in experiments. The rats had free access to tap water and a standard rodent diet (CR-LPF) (Oriental Yeast Co., Ltd.).
Intravenous catheter was placed into eight-week old rats. The catheter was inserted from the femoral vein in the inguinal region, and the tip was extended into the caudal vena cava for placement at that site. The body weight was determined in the first week post-surgery, and the rats were divided into groups of ten animals per group so that the average body weight of each group would be even. Two days after group division, all rats were intravenously administered once a day repeatedly for four weeks. Administration was carried out by connecting an infusion pump (MEDFUSION SYRINGE INFUSION PUMP Model 2001) to the indwelling catheter.
The solvent (vehicle) was administered intravenously to the Vehicle-Control group. To the Compound 7-20 mg/kg, −30 mg/kg, and −50 mg/kg groups, Compound 7 dissolved in the vehicle was administered intravenously at a dose of 20 mg/kg, 30 mg/kg, and 50 mg/kg, respectively. For all groups, the administration volume was 5 mL/kg and the administration speed was 5 mL/kg/minute. The composition of the vehicle used was 5% dimethyl sulfoxide (Wako Pure Chemical Industries, Ltd.), 25% propylene glycol (Kanto Chemical Co., Inc.)/20% ethanol (Junsei Chemical Co., Ltd.)/15% hydroxypropyl-β-cyclodextrin (Nihon Shokuhin Kako Co., Ltd)/300 mM glycine (Wako Pure Chemical Industries, Ltd.)/192 mM sodium hydroxide (Wako Pure Chemical Industries, Ltd.)/physiological saline solution (Otsuka Pharmaceutical Factory, Inc.). Rats were euthanized under anesthesia the day after final administration by collecting blood from the abdominal aorta, and then autopsy was performed to collect the lumbar spine, lower leg bone, and mandible. The lumbar spine, lower leg bone, and mandible were stored in 70% ethanol. The bone mineral densities of the lumbar spine (second to fourth lumbar vertebrae), lower leg bone, and mandible were determined using a dual X-ray bone mineral scanner (DCS-600EX, Aloka).
The data are shown as mean value+standard error (SE). SAS preclinical package ver. 5.00 (SAS Institute Japan) was used to perform the following statistical analyses. The significance level was set to 5% on both sides. With regard to the lumbar spine, lower leg bone, and mandible bone mineral density, parametric Dunnett multiple comparison (*P<0.05) was performed for the three dosage groups of Compound 7 with the Vehicle-Control group as control.

Cc1cc(N2C(=O)NC(=O)C2(C)C)cc(C)c1CCS(=O)(=O)N1CCC2(CC1)N=C(c1ccc(OC(F)(F)F)cc1)NC2=O [Compound 7, 1-(3,5-dimethyl-4-(2-((4-oxo-2-(4-(trifluoromethoxy)phenyl)-1,3,8-triazaspiro[4.5]deca-1-en-8-yl)sulfonyl)ethyl)phenyl)-5,5-dimethylimidazolidine-2,4-dione] was tested, and the “percentage of increase in the lumbar spine bone mineral density with respect to the Vehicle-Control group” value (20 mg/kg) was 16%, the “percentage of increase of bone mineral density in the lower leg bone with respect to the Vehicle-Control group” value (20 mg/kg) was 7% and the “percentage of increase in the lumbar spine bone mineral density with respect to the Vehicle-Control group” value (30 mg/kg) was 21%. For the same molecule, the “percentage of increase of bone mineral density in the lower leg bone with respect to the Vehicle-Control group” value (30 mg/kg) was 16%, the “percentage of increase of mandible bone mineral density relative to the Vehicle-Control group” value (30 mg/kg) was 7% and the “percentage of increase in the lumbar spine bone mineral density with respect to the Vehicle-Control group” value (50 mg/kg) was 25%. For the same molecule, the “percentage of increase of bone mineral density in the lower leg bone with respect to the Vehicle-Control group” value (50 mg/kg) was 19%.
